From US20260133203A1, “DETECTION OF FUMARATE-DERIVED MODIFICATION IN A TEST SAMPLE” (UNIVERSITY OF SOUTH CAROLINA, priority 2017, published 2026)
Where a name gives a salt, the structure may show the parent alone.

Target: T1, Collapsin Response Mediator 2 (CRMP2) (Rattus norvegicus, UniProt P47942)
T1 construct: Primary neurons from newborn rat brain cortices were isolated and cultured; endogenous in cells; host or cells: primary rat cortical neurons (postnatal day 1)
Assay: LC-MS/MS site mapping of CRMP2 peptide GLYDGPVCEVSVTPK succination
Type: cell-based
Conditions: primary rat neurons, +2 charge-state, y8 and b8 fragment ions
Experimental: Primary neurons from newborn rat brain cortices were isolated and cultured using an adaptation of methods described previously. Briefly, postnatal day 1 rats were sacrificed by decapitation, the brains were aseptically dissected, and cortices were separated from the rest of the brain in ice-cold Hibernate®-A medium (Life Technologies) containing 2% (v/v) B-27 supplement (Life Technologies) and 0.5 mM glutamine (Invitrogen™). The tissue was minced in fragments of about 1 mm3 with a scalpel and subjected to digestion with 2 mg/ml papain (Worthington) in the supplemented Hibernate®-A medium for 20 minutes at 30° C. in a shaker incubator set at 100 rpm. After thorough trituration through a fire-polished Pasteur pipette, the tissue was allowed to settle for 5 minutes and the supernatant was carefully layered on top of a discontinuous OptiPrep™ (Sigma-Aldrich™) gradient prepared in Hibernate®-A medium; the layers contained 35, 25, 20 and 15% OptiPrep™. […] After a centrifugation at 500 g for 5 min at room temperature, cells were resuspended in Neurobasal™—A medium containing 0.5 mM glutamine, 2% B-27 supplement, and 5 ng/ml bFGF (Invitrogen™); counted and plated on 24-well plates pretreated with 0.01% poly-L-lysine (Sigma-Aldrich™) at a density of 200,000 cells/well. […] The protein content in the different samples was determined by the Lowry assay. […]

COC(=O)/C=C/C(=O)OC [DMF, dimethyl fumarate]
site of succination on CRMP2: Cys504
